For 45 compounds, inhibition and IC50 results are on record in patent US8735406B2, “8-oxodihydropurine derivative” (Dainippon Sumitomo Pharma Co., Ltd., priority 2009, dated 2014).

This test addresses T1, FAAH (Rattus norvegicus, UniProt P97612).
T1 construct: Preparation of Rat Brain Membranes Preparations (FAAH Enzyme Solution); from tissue; host or cells: rat cerebrum (brain membrane preparation)
T1 sequence (P97612 1-579): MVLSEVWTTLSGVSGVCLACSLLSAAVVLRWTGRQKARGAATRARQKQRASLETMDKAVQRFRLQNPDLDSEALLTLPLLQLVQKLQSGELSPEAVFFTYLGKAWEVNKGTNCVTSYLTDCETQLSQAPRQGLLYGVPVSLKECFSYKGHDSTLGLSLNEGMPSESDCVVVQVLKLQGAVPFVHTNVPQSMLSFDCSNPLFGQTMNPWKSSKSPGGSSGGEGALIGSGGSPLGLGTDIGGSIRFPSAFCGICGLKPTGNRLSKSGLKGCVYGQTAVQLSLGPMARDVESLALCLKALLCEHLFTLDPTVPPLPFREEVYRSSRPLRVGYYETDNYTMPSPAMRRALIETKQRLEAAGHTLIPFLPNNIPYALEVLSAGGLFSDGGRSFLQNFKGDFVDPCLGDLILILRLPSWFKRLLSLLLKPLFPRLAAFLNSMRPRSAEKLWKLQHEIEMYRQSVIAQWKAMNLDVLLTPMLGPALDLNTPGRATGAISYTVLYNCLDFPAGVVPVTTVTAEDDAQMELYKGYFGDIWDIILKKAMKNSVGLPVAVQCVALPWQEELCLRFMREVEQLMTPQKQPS
As to the kind of experiment: Determination of FAAH inhibitory activity in rat (rat brain membrane preparations, [3H]-anandamide hydrolysis). The format is biochemical. The note with it: rat brain membrane preparations; for IC50: read-out: FAAH Inhibition IC50. In a few lines:
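Rat cerebrum membranes (100 μg/mL protein) preincubated 10 min at 37 °C with compound (1% DMSO) in pH 7.6 Tris buffer with 1.5% BSA. Substrate 2 nM [3H]-anandamide plus 2 μM anandamide added for 10 min at 37 °C. [3H]-ethanolamine in the aqueous phase after chloroform/methanol extraction was scintillation counted; IC50 over 0.1 nM–1 μM.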

Setting [1] is: at 100 nM, read-out: FAAH Inhibition Inhibition Rate at 100 nM.
Setting [2] is: 100 nM test substance, read-out: FAAH Inhibition, Inhibition Rate at 100 nM.

Where two headings read alike, the source gives them in different places. Some results are limits rather than exact numbers.

In the case of `CCCn1c(=O)n(C(=O)N2CC(c3ccccc3)C2)c2cnc(COC)nc21` [Example 658, 2-(Methoxymethyl)-7-[(3-phenylazetidin-1-yl)carbonyl]-9-propyl-7,9-dihydro-8H-purine-8-one], the half-inhibitory concentration (IC50) (commonly the concentration needed to halve the response being measured) was 15 nM. The inhibition (in general, the change of the read-out against control, counted positive when it falls) at 0.1 µM under setting [1] came out at 86%.
The like results for `CCCn1c(=O)n(C(=O)N2CC(c3ccc(F)cc3)C2)c2cnc(COC)nc21` [Example 659, 7-{[3-(4-Fluorophenyl)azetidin-1-yl]carbonyl}-2-(methoxymethyl)-9-propyl-7,9-dihydro-8H-purine-8-one] were, in that order, 6 nM and 112%.
As to `CCCn1c(=O)n(C(=O)N2CC(c3cccc(F)c3)C2)c2cnc(COC)nc21` [Example 660, 7-{[3-(3-Fluorophenyl)azetidin-1-yl]carbonyl}-2-(methoxymethyl)-9-propyl-7,9-dihydro-8H-purine-8-one], the half-inhibitory concentration (IC50) is 10 nM. Moreover, the inhibition at 0.1 µM under setting [1] is 121%.
The like results for `CCCn1c(=O)n(C(=O)N2CC(c3ccccc3F)C2)c2cnc(COC)nc21` [Example 661, 7-{[3-(2-Fluorophenyl)azetidin-1-yl]carbonyl}-2-(methoxymethyl)-9-propyl-7,9-dihydro-8H-purine-8-one] were, in that order, 36 nM and 82%.
The corresponding values for `CCCn1c(=O)n(C(=O)N2CC(c3cccc(C(F)(F)F)c3)C2)c2cnc(COC)nc21` [Example 662, 2-(Methoxymethyl)-9-propyl-7-({3-[3-(trifluoromethyl)phenyl]azetidin-1-yl}carbonyl)-7,9-dihydro-8H-purine-8-one] are 8 nM and 97%.
As to `Cn1c(=O)n(C(=O)N2CCCC2)c2cnc(/C=C/c3ccc(C(F)(F)F)cc3)nc21` [compound 3], the inhibition at 0.1 µM under setting [2] was determined as 59%. Further, the IC50 (test substance 0.1 nM to 1 μM) was 86 nM.
The corresponding values for `Cn1c(=O)n(C(=O)N2CCCC2)c2cnc(/C=C/c3cccc(C(F)(F)F)c3)nc21` [compound 10] are 23% and greater than 100 nM.
The like results for `Cn1c(=O)n(C(=O)N2CCCC2)c2cnc(CCc3cccc(F)c3)nc21` [compound 13] were, in that order, 91% and 42 nM.
The like results for `COc1cccc(CCc2ncc3c(n2)n(C)c(=O)n3C(=O)N2CCCC2)c1` [compound 15] were, in that order, 75% and 63 nM.
With `Cc1ccccc1-c1ncc2c(n1)n(C)c(=O)n2C(=O)N1CCCC1` [compound 169], the inhibition at 0.1 µM under setting [2] was determined as 78%. Also, the half-maximal inhibitory concentration (IC50) (test substance 0.1 nM to 1 μM) worked out at 41 nM.
The corresponding values for `COc1ccccc1-c1ncc2c(n1)n(C)c(=O)n2C(=O)N1CCCC1` [compound 172] are 67% and 69 nM.
Take `COc1ccc(-c2ncc3c(n2)n(C)c(=O)n3C(=O)N2CCCC2)cc1` [compound 174]: under setting [2], the inhibition at 0.1 µM was determined as 102%. Further, where the note is “test substance 0.1 nM to 1 μM”, the IC50 was determined as 6 nM.
The like results for `CCOc1cccc(-c2ncc3c(n2)n(C)c(=O)n3C(=O)N2CCCC2)c1` [compound 175] were, in that order, 101% and 7 nM.
The corresponding values for `CCOc1ccc(-c2ncc3c(n2)n(C)c(=O)n3C(=O)N2CCCC2)cc1` [compound 176] are 100% and 10 nM.
Regarding `Cn1c(=O)n(C(=O)N2CCCC2)c2cnc(-c3ccc(OC(F)(F)F)cc3)nc21` [compound 177], the inhibition at 0.1 µM under setting [2] came out at 78%. Further, for the setting “test substance 0.1 nM to 1 μM”, the 50% inhibitory concentration (IC50) turned out to be 58 nM.
Turning to `Cn1c(=O)n(C(=O)N2CCCC2)c2cnc(-c3ccc(C(F)(F)F)cc3)nc21` [compound 178], the inhibition at 0.1 µM under setting [2] came to 96%. Besides, the IC50 (test substance 0.1 nM to 1 μM) is 42 nM.
The corresponding values for `Cn1c(=O)n(C(=O)N2CCCC2)c2cnc(-c3ccc(-c4ccccc4)cc3)nc21` [compound 179] are 97% and 44 nM.
The corresponding values for `CCCc1ccc(-c2ncc3c(n2)n(C)c(=O)n3C(=O)N2CCCC2)cc1` [compound 180] are 99% and 38 nM.
The corresponding values for `Cn1c(=O)n(C(=O)N2CCCC2)c2cnc(-c3ccc(C#N)cc3)nc21` [compound 181] are 101% and 4 nM.
For the compound `CC(=O)c1ccc(-c2ncc3c(n2)n(C)c(=O)n3C(=O)N2CCCC2)cc1` [compound 184], the inhibition at 0.1 µM under setting [2] is 102%. In addition, the IC50 (test substance 0.1 nM to 1 μM) is 4 nM.
In the case of `Cn1c(=O)n(C(=O)N2CCCC2)c2cnc(-c3ccc(C(C)(C)C)cc3)nc21` [compound 185], the inhibition at 0.1 µM under setting [2] came to 58%. The IC50 (test substance 0.1 nM to 1 μM) worked out at 89 nM.
The like results for `CC(=O)c1cccc(-c2ncc3c(n2)n(C)c(=O)n3C(=O)N2CCCC2)c1` [compound 186] were, in that order, 102% and 7 nM.
The like results for `Cn1c(=O)n(C(=O)N2CCCC2)c2cnc(-c3ccc(F)cc3F)nc21` [compound 188] were, in that order, 99% and 9 nM.
The like results for `Cn1c(=O)n(C(=O)N2CCCC2)c2cnc(-c3ccc(F)c(F)c3)nc21` [compound 190] were, in that order, 100% and 6 nM.
Regarding `COc1ccc(-c2ncc3c(n2)n(C)c(=O)n3C(=O)N2CCCC2)cc1F` [compound 191], the inhibition at 0.1 µM under setting [2] turned out to be 105%. Also, the 50% inhibitory concentration (IC50) (test substance 0.1 nM to 1 μM) worked out at 7 nM.
Take `Cc1ccc(-c2ncc3c(n2)n(C)c(=O)n3C(=O)N2CCCC2)cc1F` [compound 192]: under setting [2], the inhibition at 0.1 µM worked out at 103%. Moreover, for the setting “test substance 0.1 nM to 1 μM”, the half-inhibitory concentration (IC50) came out at 39 nM.
The like results for `CCOc1cc(F)cc(-c2ncc3c(n2)n(C)c(=O)n3C(=O)N2CCCC2)c1` [compound 193] were, in that order, 102% and 42 nM.
The corresponding values for `COc1ccc(F)cc1-c1ncc2c(n1)n(C)c(=O)n2C(=O)N1CCCC1` [compound 195] are 83% and 66 nM.
On to `Cc1cc(C)cc(-c2ncc3c(n2)n(C)c(=O)n3C(=O)N2CCCC2)c1` [compound 197], for which the inhibition at 0.1 µM under setting [2] is 69%. The 50% inhibitory concentration (IC50) (test substance 0.1 nM to 1 μM) turned out to be 70 nM.
The corresponding values for `Cn1c(=O)n(C(=O)N2CCCC2)c2cnc(-c3ccc(OC(F)(F)F)c(F)c3)nc21` [compound 198] are 92% and 46 nM.
The corresponding values for `Cn1c(=O)n(C(=O)N2CCCC2)c2cnc(-c3cc(C(F)(F)F)ccc3F)nc21` [compound 199] are 68% and 72 nM.
The like results for `Cn1c(=O)n(C(=O)N2CCCC2)c2cnc(-c3cccc(OC(F)(F)F)c3)nc21` [compound 204] were, in that order, 81% and 56 nM.
For the compound `COc1cncc(-c2ncc3c(n2)n(C)c(=O)n3C(=O)N2CCCC2)c1` [compound 208], the inhibition at 0.1 µM under setting [2] is 106%. The IC50 (test substance 0.1 nM to 1 μM) stood at 10 nM.
The like results for `Cn1c(=O)n(C(=O)N2CCCC2)c2cnc(-c3cccnc3F)nc21` [compound 209] were, in that order, 103% and 24 nM.
The corresponding values for `CCOc1ccc(-c2ncc3c(n2)n(C)c(=O)n3C(=O)N2CCCC2)cn1` [compound 210] are 103% and 8 nM.
In the case of `Cn1c(=O)n(C(=O)N2CCCC2)c2cnc(-c3cncc(F)c3)nc21` [compound 211], the inhibition at 0.1 µM under setting [2] was found to be 101%. Besides, where the note is “test substance 0.1 nM to 1 μM”, the concentration for half-maximal inhibition (IC50) was determined as 8 nM.
The corresponding values for `Cc1cncc(-c2ncc3c(n2)n(C)c(=O)n3C(=O)N2CCCC2)c1` [compound 212] are 88% and 54 nM.
The corresponding values for `Cn1c(=O)n(C(=O)N2CCCC2)c2nc(-c3ccccc3F)ncc21` [compound 225] are 57% and 89 nM.
The like results for `COc1ccc(/C=C/c2ncc3c(n2)n(C(=O)N2CCCC2)c(=O)n3C)cc1` [compound 242] were, in that order, 40% and greater than 100 nM.
As for `Cc1ccc(Cc2ncc3c(n2)n(C)c(=O)n3C(=O)N2CCCC2)cc1` [compound 259], under setting [2], the inhibition at 0.1 µM stood at 95%. In addition, the half-maximal inhibitory concentration (IC50) (test substance 0.1 nM to 1 μM) was 41 nM.
The like results for `COc1ccccc1Cc1ncc2c(n1)n(C)c(=O)n2C(=O)N1CCCC1` [compound 260] were, in that order, 84% and 58 nM.
The like results for `CCOc1ccc(Cc2ncc3c(n2)n(C)c(=O)n3C(=O)N2CCCC2)cc1` [compound 263] were, in that order, 75% and 68 nM.
The like results for `Cn1c(=O)n(C(=O)N2CCCC2)c2cnc(Cc3ccc(C#N)cc3)nc21` [compound 264] were, in that order, 91% and 54 nM.
Take `Cn1c(=O)n(C(=O)N2CCCC2)c2cnc(Cc3ccc(F)c(F)c3)nc21` [compound 269]: the inhibition at 0.1 µM under setting [2] came out at 96%. Besides, under “test substance 0.1 nM to 1 μM”, the half-maximal inhibitory concentration (IC50) came to 42 nM.
Take `COc1cc(Cc2ncc3c(n2)n(C)c(=O)n3C(=O)N2CCCC2)cc(OC)c1` [compound 271]: the inhibition at 0.1 µM under setting [2] came out at 39%. The half-inhibitory concentration (IC50) (test substance 0.1 nM to 1 μM) is greater than 100 nM.
